Columns and labels:
[1] = test system: premature stop codon in Stop-POST5 complex; test: PURE-LITE readthrough assay; format: biochemical, shrimp (Artemia salina); conditions: FIG. 2A, read-out: apparent EC50, readthrough efficacy
Experimental: FIG. 2A, FIG. 2B, FIG. 2C, FIG. 2D, FIG. 2E, and FIG. 2F are graphs showing AzAt Photoaffinity Labeling and binding. FIG. 2A is a graph showing the readthrough efficacy of AzAt measured by PURE-Lite readthrough assay. AzAt is shown to display similar sigmoidal response as ataluren and ataluren-like compounds (Ng et al., 2018), with the apparent EC50 of 50±10 μM. FIG. 2B illustrates AzAt photoincorporation into Stop-POST5 and the RNA fraction of Stop-POST5. FIG. 2C illustrates AzAt photoincorporation into 80S-IRES and the total RNA isolated from 80S.IRES. All of the labeling stoichiometries in FIG. […] are normalized to the saturation labeling of Stop-POST5, which was equal to 1.2/Stop-POST5. FIG. 2D illustrates AzAt photoincorporation into eRF1 both alone and complexed with eRF3.GDPNP. The values are normalized to the saturation labeling of isolated eRF1. FIG. 2E illustrates inhibition of AzAt photoincorporation by the addition of either ataluren or GJ072. FIG. 2F is a graph showing Photoaffinity labeling of eRF3 alone or within release factor ternary complex. […] FIG. 2G and FIG. 2H are graphs showing the RNA-seq reads coverage as the effective reads per nucleotide. PRE: treated with 300 μM prephotolysed AzAt; PAL: treated with 300 μM AzAt. 26S-rRNA nucleotides 1-45 were unable to be mapped due to the lack of sequence information. […]

[2] = test system: rRNA fragments I-IV of 80S-IRES; test: RNaseH fragment assay, 80S-IRES; format: binding, shrimp (Artemia salina); conditions: PAL, 300 μM AzAt, alone or plus competing ligand named as label
Experimental: RNaseH Fragment Assay. Total RNA was prepared from the ^3H-AzAt photoaffinity labeled ribosome by phenol-chloroform extraction. RNA: DNA duplexes were formed by incubating total RNA (0.2 μM) with an oligonucleotide pair (1 μM of each, sequences shown Table 1), flanking a specific RNA region, in 22.8 μL of water at 95° C. for 2 min, followed by annealing at 50° C. for 30 s and quenching on ice. Six units (1.2 μL) of RNase H (NEB) and 6 μl of 5×RNase H Reaction Buffer were next added to the RNA: DNA duplex and incubated at 37° C. for 1 hour, followed by phenol-chloroform extraction of RNA. The digested RNA was separated on 12% TBE-Urea PAGE gel, and the target band along with the adjacent upper and bottom gels were sliced by a 2 mm gel cutter. The gel slices were crushed and the ^3H labeled rRNA fragment was extracted in water by vigorously shaking at 70° C. for 30 min, or by overnight extraction in elution buffer (0.3M sodium acetate, 0.25% SDS, 1 mM EDTA). The slurry was removed by centrifugation and the eluted ^3H labeled rRNA in the supernatant was quantified. The stoichiometry of AzAt photoincorporation was calculated based on a gel recovery yield of 20±2%, determined using an authentic sample of [^3H]-Gln-tRNA^Gln.
Testing the functional pertinence of AzAt photolabeling of 18S A1195, 28S-A3093, 28S-A2672, and 28S-2669. An RNAse H fragment assay was employed to determine whether the potential functionally significant sites identified by LASER-seq correspond to ataluren binding sites relevant for termination activity. In this assay, oligonucleotide hybridization, RNase H digestion and polyacrylamide gel electrophoresis (PAGE) were used to determine the stoichiometry of [^3H]-AzAt photoincorporation into the three rRNA fragments that together include the four nucleotides of interest: Fragment I, 18S-A1195; Fragment II, 26S-A3093; Fragment III, 26S-A2669 and 26S-A2672 (Table 5). The separate addition of four potential competitors of AzAt binding (eRF1 alone, the stably bound eRF1.eRF3.GDPNP complex, ataluren, and the ataluren-like TRID GJ072) was used to test how these affected such photoincorporation. These experiments, the results of which are summarized in Table 5, were performed at two different AzAt concentrations. eRF1 and eRF1.eRF3.GDPNP effects were measured using 300 μM AzAt, paralleling the LASER-Seq PAL experiments.

[N-]=[N+]=Nc1ccc(-c2nc(-c3cccc(C(=O)O)c3)no2)cc1 [AzAt]
EC50 [1]: 50 ± 10 µM
Photoincorporation yields into 18S A1195/ I: 18S 1151-1206 ([2]; 80S-IRES): 1.03 ± 0.33 mole %
Photoincorporation yields into 26S-A2669:A2672/ III: 26S 2638-2702 ([2]; 80S-IRES): 1.01 ± 0.12 mole %
Photoincorporation yields into 26S-A3093/ II: 26S 3069-3113 ([2]; 80S-IRES): 0.50 ± 0.09 mole %
Photoincorporation yields into RNAse H Fragment IV: 26S 1413-1476 ([2]; 80S.IRES): 0.29 ± 0.11%
